Experimental data: the supplement of paper PMC10307832

Columns and labels:
Experiment in all cases: relative viability (nuclei count vs DMSO), 5 days (fraction); higher = more cells survive
Afatinib + AZD7762 = compound: CN(C)C/C=C/C(=O)Nc1cc2c(Nc3ccc(F)c(Cl)c3)ncnc2cc1O[C@H]1CCOC1 [Afatinib] + NC(=O)Nc1cc(-c2cccc(F)c2)sc1C(=O)N[C@H]1CCCNC1 [AZD7762] (partner 0.2 µM)
Summary of the method: (§1)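 Lung cancer cell lines were seeded in 1536-well plates and dosed by pin tool the next day, with either a single drug or a fixed anchor-drug dose combined with five library-drug doses (not always all listed) spaced in √10 steps. Five days later, one step fixed the cells and stained their nuclei (final 0.05% Triton X-100, 1% formaldehyde, 1 ug/ml Hoechst), and nuclei were counted on 4× images. Relative viability is the nuclei count in treated wells divided by the count in vehicle wells, and each value is the median of duplicate plates.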

Afatinib + Alpelisib = compound: CN(C)C/C=C/C(=O)Nc1cc2c(Nc3ccc(F)c(Cl)c3)ncnc2cc1O[C@H]1CCOC1 [Afatinib] + Cc1nc(NC(=O)N2CCC[C@H]2C(N)=O)sc1-c1ccnc(C(C)(C)C(F)(F)F)c1 [Alpelisib] (partner 2 µM)
Summary of the method: as §1

Afatinib + Phenformin = compound: CN(C)C/C=C/C(=O)Nc1cc2c(Nc3ccc(F)c(Cl)c3)ncnc2cc1O[C@H]1CCOC1 [Afatinib] + N=C(N)NC(=N)NCCc1ccccc1 [Phenformin] (partner 250 µM)
Summary of the method: as §1

Afatinib + Pictilisib = compound: CN(C)C/C=C/C(=O)Nc1cc2c(Nc3ccc(F)c(Cl)c3)ncnc2cc1O[C@H]1CCOC1 [Afatinib] + CS(=O)(=O)N1CCN(Cc2cc3nc(-c4cccc5[nH]ncc45)nc(N4CCOCC4)c3s2)CC1 [Pictilisib] (partner 1 µM)
Summary of the method: as §1

Cell Line | relative viability (Afatinib + AZD7762; first compound 0.005 µM) | relative viability (Afatinib + AZD7762; first compound 0.01581 µM) | relative viability (Afatinib + AZD7762; first compound 0.05 µM) | relative viability (Afatinib + AZD7762; first compound 0.1581 µM) | relative viability (Afatinib + AZD7762; first compound 0.5 µM) | relative viability (Afatinib + Alpelisib; first compound 0.005 µM) | relative viability (Afatinib + Alpelisib; first compound 0.01581 µM) | relative viability (Afatinib + Alpelisib; first compound 0.05 µM) | relative viability (Afatinib + Alpelisib; first compound 0.1581 µM) | relative viability (Afatinib + Alpelisib; first compound 0.5 µM) | relative viability (Afatinib + Phenformin; first compound 0.005 µM) | relative viability (Afatinib + Phenformin; first compound 0.01581 µM) | relative viability (Afatinib + Phenformin; first compound 0.05 µM) | relative viability (Afatinib + Phenformin; first compound 0.1581 µM) | relative viability (Afatinib + Phenformin; first compound 0.5 µM) | relative viability (Afatinib + Pictilisib; first compound 0.005 µM) | relative viability (Afatinib + Pictilisib; first compound 0.01581 µM) | relative viability (Afatinib + Pictilisib; first compound 0.05 µM) | relative viability (Afatinib + Pictilisib; first compound 0.1581 µM) | relative viability (Afatinib + Pictilisib; first compound 0.5 µM)
HCC-366 | 0.194 | 0.285 | 0.259 | 0.337 | 0.264 | 0.375 | 0.423 | 0.41 | 0.308 | 0.485 | 0.588 | 0.61 | 0.611 | 0.632 | 0.595 | 0.143 | 0.123 | 0.224 | 0.134 | 0.191
HCC-827 | 0.11 | 0.119 | 0.125 | 0.121 | 0.0942 | 0.172 | 0.157 | 0.183 | 0.17 | 0.184 | 0.137 | 0.119 | 0.152 | 0.119 | 0.137 | 0.295 | 0.324 | 0.312 | 0.37 | 0.226
HOP-62 | 0.561 | 0.512 | 0.571 | 0.64 | 0.471 | 0.977 | 0.599 | 1.14 | 1.08 | 0.689 | 0.862 | 0.561 | 0.748 | 0.719 | 0.629 | 0.802 | 0.688 | 0.757 | 0.662 | 0.639
LC-2-ad | 0.782 | 0.713 | 0.559 | 0.411 | 0.46 | 0.892 | 0.441 | 0.819 | 0.687 | 0.784 | 0.66 | 0.514 | 0.585 | 0.541 | 0.52 | 0.617 | 0.427 | 0.439 | 0.359 | 0.375
LCLC-97TM1 | 0.164 | 0.259 | 0.186 | 0.42 | 0.18 | 0.175 | 0.286 | 0.313 | 0.184 | 0.211 | 0.439 | 0.398 | 0.438 | 0.404 | 0.391 | 0.27 | 0.182 | 0.182 | 0.144 | 0.15
LCLC-103H | 0.758 | 0.814 | 0.758 | 0.781 | 0.78 | 0.806 | 1.09 | 0.997 | 0.939 | 1 | 0.319 | 0.358 | 0.326 | 0.37 | 0.353 | 0.621 | 0.572 | 0.642 | 0.62 | 0.482
LK-2 | 0.465 | 0.328 | 0.371 | 0.329 | 0.521 | 1.34 | – | 1.04 | 1.12 | 1.12 | 0.471 | 0.306 | 0.422 | 0.488 | 0.574 | 0.546 | – | 0.485 | 0.596 | 0.535
LOU-NH91 | 0.707 | 0.704 | 0.76 | 0.679 | 0.637 | 0.494 | 0.492 | 0.537 | 0.501 | 0.523 | 0.342 | 0.45 | 0.477 | 0.394 | 0.548 | 0.492 | 0.49 | 0.541 | 0.498 | 0.501
LU99A | 0.238 | 0.41 | 0.37 | 0.257 | 0.293 | 0.557 | 0.468 | 0.438 | 0.452 | 0.489 | 0.837 | 0.851 | 0.891 | 0.944 | 0.828 | 0.345 | 0.395 | 0.308 | 0.349 | 0.295
LXF-289 | 1.05 | 1.03 | 1.11 | 1.02 | 1.02 | 0.97 | 1.01 | 1.02 | 0.919 | 0.975 | 0.492 | 0.521 | 0.534 | 0.468 | 0.471 | 0.829 | 0.701 | 0.695 | 0.706 | 0.777
NCI-H23 | 0.17 | 0.226 | 0.237 | 0.23 | 0.195 | 0.771 | 0.735 | 0.725 | 0.636 | 0.561 | 0.847 | 0.825 | 0.808 | 0.772 | 0.718 | 0.543 | 0.52 | 0.501 | 0.424 | 0.398
NCI-H322M | 0.433 | 0.407 | 0.389 | 0.402 | 0.348 | 0.666 | 0.519 | 0.495 | 0.384 | 0.335 | 0.636 | 0.433 | 0.535 | 0.463 | 0.446 | 0.441 | 0.396 | 0.351 | 0.327 | 0.279
NCI-H358 | 0.406 | 0.373 | 0.284 | 0.273 | 0.22 | 0.668 | 0.488 | 0.324 | 0.255 | 0.37 | 0.266 | 0.171 | 0.171 | 0.163 | 0.175 | 0.305 | 0.241 | 0.279 | 0.288 | 0.269
NCI-H441 | 1.56 | 0.993 | 1.09 | 1.16 | 1.1 | 0.831 | 0.763 | 0.751 | 0.581 | 0.626 | 0.92 | 0.748 | 0.916 | 0.736 | 0.797 | 0.431 | 0.504 | 0.436 | 0.481 | 0.31
NCI-H460 | 0.396 | 0.595 | 0.62 | 0.635 | 0.603 | 0.52 | 0.509 | 0.484 | 0.543 | 0.349 | 0.549 | 0.517 | 0.536 | 0.558 | 0.498 | 0.371 | 0.39 | 0.339 | 0.35 | 0.343
NCI-H596 | 1.06 | 1.01 | 1.11 | 1.09 | 0.901 | 0.542 | 0.512 | 0.528 | 0.385 | 0.538 | 0.804 | 0.804 | 0.729 | 0.753 | 0.685 | 0.35 | 0.394 | 0.4 | 0.384 | 0.415
NCI-H647 | 0.32 | 0.426 | 0.403 | 0.525 | 0.466 | 1.22 | 1.13 | 1.17 | 1.03 | 1.05 | 0.664 | 0.481 | 0.57 | 0.692 | 0.445 | 0.407 | – | 0.457 | 0.459 | 0.453
NCI-H650 | 0.832 | 0.886 | 1.03 | 1.04 | 0.904 | 1.23 | 1.11 | 1.14 | 1.25 | 1.06 | 0.498 | 0.46 | 0.446 | 0.498 | 0.351 | 0.889 | 0.793 | 1 | 1.09 | 0.924
NCI-H727 | 0.574 | 0.467 | 0.527 | 0.515 | 0.543 | 0.579 | 0.462 | 0.503 | 0.417 | 0.561 | 0.493 | – | 0.299 | 0.613 | 0.442 | 0.315 | 0.401 | 0.306 | 0.279 | 0.281
NCI-H838 | 0.801 | 0.946 | 0.915 | 0.968 | 0.953 | 0.93 | 1.1 | 1.06 | 0.905 | 1.1 | 0.675 | 0.54 | 0.582 | 0.567 | 0.553 | 0.441 | 0.462 | 0.453 | 0.497 | 0.524
NCI-H1355 | 0.71 | 0.765 | 0.779 | 0.645 | 0.748 | 0.782 | 0.89 | 0.918 | 0.656 | 0.645 | 0.484 | 0.491 | 0.482 | 0.424 | 0.421 | 0.39 | 0.467 | 0.482 | 0.36 | 0.21
NCI-H1395 | 0.388 | 0.378 | 0.377 | 0.385 | 0.354 | 1.11 | 1.17 | 1.08 | 1.41 | 1.29 | 0.476 | 0.41 | 0.447 | 0.442 | 0.449 | 0.658 | 0.515 | 0.723 | 0.624 | 0.551
NCI-H1437 | 1.11 | 1.05 | 1.19 | 1.09 | 1.2 | 0.99 | 1.06 | 1.04 | 0.924 | 1.01 | 0.333 | 0.294 | 0.334 | 0.358 | 0.302 | 0.489 | 0.407 | 0.378 | 0.468 | 0.471
NCI-H1651 | 0.396 | 0.361 | 0.424 | 0.421 | 0.451 | 1.02 | 0.881 | 0.906 | 0.953 | 0.849 | 0.368 | 0.333 | 0.288 | 0.329 | 0.332 | 0.58 | 0.533 | 0.546 | 0.553 | 0.449
NCI-H1666 | 0.824 | 0.776 | 0.824 | 0.608 | 0.76 | 0.968 | 0.605 | 0.505 | – | 0.497 | 0.572 | 0.553 | 0.607 | 0.555 | 0.567 | 0.329 | 0.252 | 0.344 | – | 0.345
NCI-H1734 | 0.389 | 0.602 | 0.58 | 0.498 | 0.471 | 0.675 | 0.747 | 0.735 | 0.697 | 0.671 | 0.419 | 0.383 | 0.412 | 0.351 | 0.405 | 0.479 | 0.467 | 0.486 | 0.438 | 0.416
NCI-H1755 | 0.359 | 0.562 | 0.528 | 0.398 | 0.417 | 0.492 | 0.89 | 0.882 | 0.888 | 0.929 | 0.677 | 0.663 | 0.823 | 0.578 | 0.617 | 0.433 | 0.435 | 0.41 | 0.368 | 0.358
